Key:
[1] = tested on: endometrial stromal cells; test: Cytotoxic effect on immortalized non-cancer endometrial stromal cells; type: cell-based
[2] = tested on: HCT116 colon carcinoma; test: Immunohistochemistry and TUNEL of HCT116 xenograft tumors; type: in vivo, mice; settings: end of treatment, 10 mg/Kg
Description: HCT116 cell line was grown in McCoy’s medium, supplemented with 10% inactivated FBS, 2 mM glutamine and standard concentration of antibiotics. 7- to 8-week-old male CD1 nude athymic mice were purchased from Charles River and under pathogen-free conditions in accordance with European Directives no. 2010/63 and with Italian D.L. 26/2014. Mice were injected subcutaneously into the right flank with 4 × 10^6 of HCT116 cells; tumor volume (mm^3) was evaluated three times a week by caliper using the formula Dmax x dmin^^2/2, where ‘d’ and ‘D’ are the shortest and the longest diameters, respectively. For all experiments, mice were randomly divided (n = 7) and intra-peritoneal injected by day five every day with: vehicle sesame oil/DMSO 6%; MC2884 10 mg/Kg in sesame oil/DMSO 6%. Mice were sacrificed after 20 days of drug treatment and tumors explanted for immunohistochemical analyses. For HCT116-DKO colon cancer, 6 × 10^6 cells were injected.
The biopsy specimens were fixed in 10% buffered-formalin and paraffin-embedded. Sections of […] were stained with haematoxylin-eosin, and haematoxylin-van Gieson. For immunohistochemistry, specimens were incubated in a microwave oven for 15 min in 10 mM buffered citrate pH 6.0 followed by the immunohistochemical procedure for Ki67 (Santa Cruz Biotechnology Inc., CA, USA), H3K27me3, H3K9/14ac (Diagenode). The conventional avidin-biotin complex procedure was applied according to manufacturer’s protocol (Dako Carpinteria, CA, USA) and incubated with secondary antibody. […] Slides were cover-slipped with a xylene-based mounting medium. Staining was scored as percentage of positive nuclei per high power field 10 × 40. Negative controls for each tissue section were performed omitting the primary antibody. Positive controls included in each experiment consisted of tissue previously shown to express the antigen of interest. TUNEL reaction was performed using the peroxidase-based Apoptag kit (Oncor, Gaithersburg, MD, US). TUNEL positive cells were detected with DAB and H2O2 according to the supplier’s instructions. The experiments were repeated on different sections for each specimen (two to four). For all immunohistochemical markers, 100 random fields (250×) per section were analysed (12.5 mm^2). Mann–Whitney and Wilcoxon tests were used to assess the relationship between ordinal data. Two-tailed P value was considered significant when ≤ 0.05. SPSS software (version 10.00, SPSS, Chicago, IL, USA) was used for statistical analysis.

[3] = scored as percentage of positive nuclei

O=C1/C(=C/c2cccc(Br)c2)CN(Cc2ccccc2)C/C1=C\c1cccc(Br)c1 [MC2884]
cytotoxic effect on endometrial stromal cells [1]: insensitive | apoptotic index (TUNEL) [2]: 35±4 | H3 K9/14ac [2, 3]: 5±0.2 | H3 K27me3 [2, 3]: 19±2 | proliferation index (Ki67) [2, 3]: 6±0.5
